The results in this text go back to patent publication US20200308165A1, “Compounds as Ras Inhibitors and Use Thereof” (D.E. Shaw Research, LLC, priority 2017, published 2020).

For one test, the target named is T1, KRAS4B (wild type) (Homo sapiens, UniProt P01116).
T1 construct: purchased Cytoskeleton CS-RS03 (K-Ras4B); CS-SOS1-A (SOS1)
The test can be described thus: K-Ras Nucleotide Exchange Assay-384 (SOS Exchange Assay by Cytoskeleton, GTPx_Cyt_IC50). The format is biochemical. The settings on record: 1 μM KRAS4B, 0.05 μM SOS1, 1.5 μM mant-GDP. As for the experimental part:
Example 16. Evaluation of Biological Activities: K-Ras Nucleotide Exchange Assay-384 (SOS Exchange Assay by Cytoskeleton (GTPx_Cyt_IC50))
This assay is used to evaluate inhibitors of K-ras, by monitoring the inhibition of nucleotide exchange over time, in the presence of the protein SOS.
384-well black, untreated plates (Corning 3820 with NBS or 3821 untreated) were used. K-Ras4B Protein was used, which is wild-type (Cytoskeleton #CS-RS03) with a concnetration of 5 mg/ml, or 200 μM. Human SOS1 Protein, Exchange Domain 564-1049 (Cytoskeleton # CS-SOS1-A) was used in a concentration of 3.03 mg/ml or 50 μM. Mant-GDP triethylammonium salt solution was purchased from Sigma (catalog No. 69244). 1M stock solution of Hepes was purchased from Sigma (catalog No. H9897). 1M stock solution of MgCl2 was purchased from Sigma (catalog No. M4880). CHAPS, 3% was purchased from Sigma (catalog No. C5070). Nonidet P40 was purchased from Sigma. KOH pellets were purchased from Sigma.
K-ras buffer containing 40 mM Hepes, 10 mM MgCl2, 0.05% CHAPS, 0.01% NP40 with a pH 7.5 was prepared as follows: to a Buffer base containing 4 ml 1M Hepes, 1 ml MgCl2,
93.3 ml d-H2O, pH 7.5 (with KOH pellets), 1.7 ml 3% CHAPS was added, followed by the addition of 1 ml 1% NP40.
Final Conditions of the method included 1 μM KRAS4B (wild type), 0.05 μM SOS1, 1.5 μM mant-GDP. Reagent Preparation included: thawing aliquots of KRAS, SOS, and mant-GDP; preparing 3x KRAS (3 uM) in assay buffer; preparing 3x SOS/mant-GDP (150 nM/4.5 uM) in assay buffer; and preparing 3x compounds in assay buffer.
Assay Procedure (1536) used 3.3 μl, 3x Kras, 3.3 μl 3x compound with preincubate 0 hour, and […] 3x SOS/mant-GDP. A kinetic read measuring fluorescence at 360_450 was performed for 30 min at 30 second intervals.
Reference compound SCH 54292 (reversible inhibitor) at about 100 μM was used with no preincubation. Reagents were only stable for 45 min on ice, and therefore were prepared fresh before each assay. Partial plates (up to 9 columns) were run at a time to minimize effects due to the amount of time it takes to read a whole plate. SOS/mant-GDP were added with an automated pipettor to initiate all reactions at the same time. Assay was typically performed at 0.5% solution in DMSO (compounds prepared in 1.5% DMSO initially).
Clariostar Settings were as follows. Test Name was Kras Kinetic 360-450. Basic settings of the test included Measurement type as Fluorescence (FI), and Microplate name as Corning 3820. Plate mode settings included 61 cycles, 30 second cycle time, and 10 flashes per well. Optic settings were as follows. Excitation wavelength was 360 nm. Emission wavelength was 450 nM. Excitation bandwidth was 12 nm. Emission bandwidth was 12 nm. Dichroic filter 405 was used. D6 Well(s) was used for gain adjustment. No shaking was used. General settings were as follows. Top optic was used. Settling time was 0.1 second. Reading direction was bidirectional, horizontal left to right, and bottom to top. The target temperature was 25° C.

The next test deals with Ras protein (Homo sapiens, UniProt P01116). In words: GDPx_Icagen_IC50: SOS1-mediated guanine nucleotide exchange rate of Ras (mant-GDP). The format is biochemical. The settings on record: SOS1-initiated exchange.
From the text: (§1) In some embodiments, the IC50 assay measures the reduction effect of a given compound on the guanine nucleotide-echange rate of Ras protein in the presence of guanine nucleotide exchange protein SOS1, which is a Ras activator. In the assay GDP-loaded Ras was first prepared in a buffer containing the compound at certain concentration and fluorescent guanine nucleotide (mant-GDP (used in Icagene assay) or mant-GTP (used in other IC50 assays). The guanine nucleotide exchange was initiated by the addition of the SOS1 and its rate was reflected in the rate of fluorescence change as a function of time, which was monitored by a reader. The experiment was repeated at different compound concentrations and the IC50 of the compound was defined as the compound concentration at which half of its maximal reduction effect on the guanine nucleotide exchange rate is achieved. In other embodiments, other Ras activator proteins may be used. Non-limiting examples of other Ras activator proteins include RasGRP (Ras guanyl-releasing protein).
Example 17. Evaluation of Biological Activities: GDPx_Icagen_ICso
as §1, with “The IC50” for “In some embodiments, the IC50”, “guanine nucleotide-exchange” for “guanine nucleotide-echange”, “Ras is” for “Ras was”, “nucleotide (mant-GDP).” for “nucleotide (mant-GDP (used in Icagene assay) or mant-GTP (used in other IC50 assays).”, “achieved.” for “achieved. In other embodiments, other Ras activator proteins may be used. Non-limiting examples of other Ras activator proteins include RasGRP (Ras guanyl-releasing protein).”

Ras protein, sequence (P01116 1-188 isoform P01116-2): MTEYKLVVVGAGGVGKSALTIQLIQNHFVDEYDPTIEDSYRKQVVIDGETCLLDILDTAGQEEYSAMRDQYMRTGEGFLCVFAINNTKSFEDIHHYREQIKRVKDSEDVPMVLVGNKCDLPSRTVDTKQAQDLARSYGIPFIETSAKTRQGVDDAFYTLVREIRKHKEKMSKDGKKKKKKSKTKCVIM
T1 sequence (P01116 1-188 isoform P01116-2): as above

In the case of `O=c1cc(CSc2nc(-c3ccccc3)cs2)[nH]n1-c1nc2ccccc2[nH]1` [Compound 151, 2-(1H-benzo[d]imidazol-2-yl)-5-(((4-phenylthiazol-2-yl)thio)methyl)-1,2-dihydro-3H-pyrazol-3-one], the half-maximal inhibitory concentration (IC50) against KRAS4B (wild type) and on Ras protein was 400 nM in each case.
Turning to `Cc1csc(SCc2cc(=O)n(-c3nc4ccccc4[nH]3)[nH]2)n1` [Compound 152, 2-(1H-benzo[d]imidazol-2-yl)-5-(((4-methylthiazol-2-yl)thio)methyl)-1,2-dihydro-3H-pyrazol-3-one], the IC50 against KRAS4B (wild type) was 610 nM; against Ras protein, 600 nM.
Consider `O=c1cc(CSc2nnc(-c3ccccc3)o2)[nH]n1-c1nc2ccccc2[nH]1` [Compound 153, 2-(1H-benzo[d]imidazol-2-yl)-5-(((5-phenyl-1,3,4-oxadiazol-2-yl)thio)methyl)-1,2-dihydro-3H-pyrazol-3-one], for which the half-maximal inhibitory concentration (IC50) at KRAS4B (wild type) is 800 nM; at Ras protein, 2000 nM.
For the compound `O=c1cc(CSc2nc3cc(Cl)ccc3s2)[nH]n1-c1nc2ccccc2[nH]1` [Compound 154, 2-(1H-benzo[d]imidazol-2-yl)-5-(((5-chlorobenzo[d]thiazol-2-yl)thio)methyl)-1,2-dihydro-3H-pyrazol-3-one], the half-inhibitory concentration (IC50) against KRAS4B (wild type) turned out to be 1300 nM; on Ras protein, 300 nM.
Taken in the same sequence, the figures for `O=c1cc(CSc2ncccn2)[nH]n1-c1nc2ccccc2[nH]1` [Compound 156, 2-(1H-benzo[d]imidazol-2-yl)-5-((pyrimidin-2-ylthio)methyl)-1,2-dihydro-3H-pyrazol-3-one] were 7000 nM and 3000 nM.
Taken in the same sequence, the figures for `O=c1cc(CSc2ccc(Br)cn2)[nH]n1-c1nc2ccccc2[nH]1` [Compound 158, 2-(1H-benzo[d]imidazol-2-yl)-5-(((5-bromopyridin-2-yl)thio)methyl)-1,2-dihydro-3H-pyrazol-3-one] were 530 nM and 200 nM.
As for `NC(=O)c1cccc(SCc2cc(=O)n(-c3nc4ccccc4[nH]3)[nH]2)c1` [Compound 159, 3-(((1-(1H-benzo[d]imidazol-2-yl)-5-oxo-2,5-dihydro-1H-pyrazol-3-yl)methyl)thio)benzamide], the IC50 was found to be 1000 nM at KRAS4B (wild type) and 500 nM against Ras protein.
Taken in the same sequence, the figures for `[N-]=[N+]=NCc1ccc(SCc2cc(=O)n(-c3nc4ccccc4[nH]3)[nH]2)cc1` [Compound 162, 5-(((4-(azidomethyl)phenyl)thio)methyl)-2-(1H-benzo[d]imidazol-2-yl)-1,2-dihydro-3H-pyrazol-3-one] were 1400 nM and 100000 nM.
Taken in the same sequence, the figures for `CN1CCN(Cc2ccc(SCc3cc(=O)n(-c4nc5ccccc5[nH]4)[nH]3)cc2)CC1` [Compound 163, 2-(1H-benzo[d]imidazol-2-yl)-5-(((4-((4-methylpiperazin-1-yl)methyl)phenyl)thio)methyl)-1,2-dihydro-3H-pyrazol-3-one] were 1000 nM and 500 nM.
The corresponding values for `Cc1cc(C)nc(CSCc2cc(=O)n(-c3nc4ccccc4[nH]3)[nH]2)n1` [Compound 164, 2-(1H-benzo[d]imidazol-2-yl)-5-((((4,6-dimethylpyrimidin-2-yl)methyl)thio)methyl)-1,2-dihydro-3H-pyrazol-3-one] are 630 nM and 22000 nM.
`Cc1cc(C)nc(SCc2cc(=O)n(-c3ccccn3)n2C)n1` [Compound 165, 5-(((4,6-dimethylpyrimidin-2-yl)thio)methyl)-1-methyl-2-(pyridin-2-yl)-1,2-dihydro-3H-pyrazol-3-one]: the figures for the IC50 on KRAS4B (wild type) and at Ras protein were 300000 nM and 200000 nM, respectively.
In the case of `O=c1cc(CSc2ccccc2)[nH]n1-c1cnccn1` [Compound 166, 5-((phenylthio)methyl)-2-(pyrazin-2-yl)-1,2-dihydro-3H-pyrazol-3-one], the IC50 at KRAS4B (wild type) was determined as 331000 nM; on Ras protein, 48800 nM.
The corresponding values for `O=c1cc(CSc2ccccc2Cl)[nH]n1-c1nc2ccccc2[nH]1` [Compound 167, 2-(1H-benzo[d]imidazol-2-yl)-5-(((2-chlorophenyl)thio)methyl)-1,2-dihydro-3H-pyrazol-3-one] are 300000 nM and 200 nM.
`O=c1cc(CSc2ccncc2)[nH]n1-c1nc2ccccc2[nH]1` [Compound 168, 2-(1H-benzo[d]imidazol-2-yl)-5-((pyridin-4-ylthio)methyl)-1,2-dihydro-3H-pyrazol-3-one]: the half-maximal inhibitory concentration (IC50) against KRAS4B (wild type) was determined as 7000 nM; against Ras protein, 2300 nM.
The corresponding values for `Cc1cccc(-n2[nH]c(CSc3ccccc3)cc2=O)n1` [Compound 169, 2-(6-methylpyridin-2-yl)-5-((phenylthio)methyl)-1,2-dihydro-3H-pyrazol-3-one] are 2600 nM and 7000 nM.
Taken in the same sequence, the figures for `Cn1c(-n2[nH]c(CSc3ccccc3)cc2=O)nc2ccccc21` [Compound 170, 2-(1-methyl-1H-benzo[d]imidazol-2-yl)-5-((phenylthio)methyl)-1,2-dihydro-3H-pyrazol-3-one] were 6100 nM and 11900 nM.
With `O=c1cc(CSc2cccc(Cl)c2)[nH]n1-c1nc2ccccc2[nH]1` [Compound 171, 2-(1H-benzo[d]imidazol-2-yl)-5-(((3-chlorophenyl)thio)methyl)-1,2-dihydro-3H-pyrazol-3-one], the figures for the IC50 at KRAS4B (wild type) and against Ras protein were 100000 nM and 170 nM, respectively.
The corresponding values for `O=c1cc(CSc2ccc(Cl)c(Cl)c2)[nH]n1-c1nc2ccccc2[nH]1` [Compound 172, 2-(1H-benzo[d]imidazol-2-yl)-5-(((3,4-dichlorophenyl)thio)methyl)-1,2-dihydro-3H-pyrazol-3-one] are 800 nM and 200 nM.
Taken in the same sequence, the figures for `N#Cc1cccc(SCc2cc(=O)n(-c3nc4ccccc4[nH]3)[nH]2)c1` [Compound 173, 3-(((1-(1H-benzo[d]imidazol-2-yl)-5-oxo-2,5-dihydro-1H-pyrazol-3-yl)methyl)thio)benzonitrile] were 100000 nM and 500 nM.
For `Cc1ccnc(-n2[nH]c(CSc3ccccc3)cc2=O)c1` [Compound 174, 2-(4-methylpyridin-2-yl)-5-((phenylthio)methyl)-1,2-dihydro-3H-pyrazol-3-one], the results for the half-inhibitory concentration (IC50) at KRAS4B (wild type) and at Ras protein were 2700 nM and 9300 nM, respectively.
Taken in the same sequence, the figures for `O=c1cc(CSc2ccc(Cl)cc2)[nH]n1-c1nc2ccccc2[nH]1` [Compound 183, 2-(1H-benzo[d]imidazol-2-yl)-5-(((4-chlorophenyl)thio)methyl)-1,2-dihydro-3H-pyrazol-3-one] were 300000 nM and 200 nM.
